Reference: patent publication US20260028355A1, “PROTEOLYSIS TARGETING CHIMERA (PROTAC) COMPOSITIONS USING UBIQUITIN CONJUGATING ENZYME LIGANDS” (Berg LLC, priority 2022, published 2026)

Assays:
BRD4 = molecular target: T1, BRD4 (Homo sapiens, UniProt O60885); experiment: Dose dependent degradation of BRD4 in HeLa cells (FIG. 2); type: cell-based
T1 construct: dose dependent degradation of BRD4 in HeLa cells; endogenous in cells; host or cells: HeLa
Description: FIG. 2 illustrates the dose dependent degradation of BRD4 in HeLa cells using E2 binding PROTACS based on the present disclosure.
Dose Dependent Degradation of BRD4 in HeLa Cells
Compounds 6, 7, and 9 were then investigated for their ability to degrade BRD4.

UBE2K-Ub = experiment: E2 binding capacity of PROTACs (FIG. 1)
Description: UBE2K binder Compound 1 was used as a precursor to generate PROTAC Compounds 2, 6, 7, and 9. See experimental section above. Each of these PROTACs were first tested for their ability to bind the E2 enzyme UBE2K.

UBE2K = molecular target: T2, UBE2K (Homo sapiens, UniProt P61086); experiment: UBE2K dissociation constant (Kd) by surface plasmon resonance (Biacore S200); type: binding; settings: SPR, steady state fitting; immobilized biotinylated UBE2K-Ub complex and UBE2K wild type
T2 sequence (P61086 1-200): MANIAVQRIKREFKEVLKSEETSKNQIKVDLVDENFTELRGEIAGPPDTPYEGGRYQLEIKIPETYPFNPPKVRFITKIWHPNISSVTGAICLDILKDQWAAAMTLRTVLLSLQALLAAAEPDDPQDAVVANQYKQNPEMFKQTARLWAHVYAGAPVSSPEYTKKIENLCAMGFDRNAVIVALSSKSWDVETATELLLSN
Experimental: UBE2K Dissociation Constant (Kd) of E2-binder Compound 1
UBE2K Ligand binding to mono-Ub UBE2K and UBE2K was measured by Surface plasma resonance using a Biacore SPR S200 instrument. The proteins and ligands were prepared for experimental measurement as described below.
Avi tagged proteins were biotinylated and were immobilized on a Series S/Sensor Chip SA. Proteins were immobilized based on their molar weight as follows -Biotinylated Avi peptide (1000 μM), Biotinylated UBE2K-Ub Complex (12 μM) and Biotinylated UBE2K Wild Type (3 μM). Proteins were immobilized using a buffer comprised of 1X HBS-N Buffer+0.05% Tween 20 (250 mL). A stock of Compound 1 was prepared in affinity buffer comprised of 1% DMSO, 1×PBS-P+Buffer. Further dilution of stock were prepared in 0% DMSO, 1×PBS-P+Buffer or 3% DMSO, 1×PBS-P+Buffer and were used as running buffers. Compound 1 was prepared as 2 mM or 750 μM stocks in the buffers described above. Titration was performed using the Liquid handler/TECAN EVO (WALL-E) as follows. 1 or 2, 96 deep well plates (1.2 mL) were used for performing titrations-Aliquoted 3% DMSO, 1×PBS-P+buffer. 1:2 dilution was performed by WALL-E (250 μL+250 μL) for the rest of titrations till 3.12 μM. The titrations of Compound 1 was then transferred to 384 deep well plate in duplicates side-by-side (125 μL) each. […]

| loss of BRD4 (BRD4) | SMILES | other results |
| --- | --- | --- |
| concentration dependent loss of BRD4 | Cc1sc2c(c1C)C(c1ccc(Cl)cc1)=N[C@@H](CC(=O)NCCOCCOCCNC(=O)CSc1nc3ccccc3c3cc(CNC(=O)c4ccccc4OC(F)(F)F)nn13)c1nnc(C)n1-2 [Compound 9, (S)—N-((5-((14-(4-(4-chlorophenyl)-2,3,9-trimethyl-6H-thieno [3,2 f][1,2,4]triazolo [4,3-a][1,4]diazepin-6-yl)-2,13-dioxo-6,9-dioxa-3,12-diazatetradecyl)thio)pyrazolo[1,5-c]quinazolin-2-yl)methyl)-2-(trifluoromethoxy)benzamide] | – |
| – | Cc1sc2c(c1C)C(c1ccc(Cl)cc1)=N[C@@H](CC(=O)NCCSc1nc3ccccc3c3cc(CNC(=O)c4ccccc4OC(F)(F)F)nn13)c1nnc(C)n1-2 [Compound 2, (S)—N-((5-((2-(2-(4-(4-chlorophenyl)-2,3,9-trimethyl-6H-thieno[3,2-f][1,2,4]triazolo[4,3-a][1,4]diazepin-6-yl)acetamido)ethyl)thio)pyrazolo[1,5-c]quinazolin-2-yl)methyl)-2-(trifluoromethoxy) benzamide] | binding to UBE2K-Ub (UBE2K-Ub): All compounds except for Compound 2 bind |
| – | O=C(NCc1cc2c3ccccc3nc(S)n2n1)c1ccccc1OC(F)(F)F [Compound 1, N-((5-thioxo-5,6-dihydropyrazolo[1,5-c]quinazolin-2-yl)methyl)-2-(trifluoromethoxy)benzamide] | Kd (UBE2K): 2110 nM |
| concentration dependent loss of BRD4 | Cc1sc2c(c1C)C(c1ccc(Cl)cc1)=N[C@@H](CC(=O)NCCOCCNC(=O)CSc1nc3ccccc3c3cc(CNC(=O)c4ccccc4OC(F)(F)F)nn13)c1nnc(C)n1-2 [Compound 7, (S)—N-((5-((2-((2-(2-(2-(4-(4-chlorophenyl)-2,3,9-trimethyl-6H-thieno[3,2-f][1,2,4]triazolo[4,3-a][1,4]diazepin-6-yl)acetamido)ethoxy)ethyl)amino)-2-oxoethyl)thio)pyrazolo[1,5-c]quinazolin-2-yl)methyl)-2-(trifluoromethoxy)benzamide] | – |
